Earlier results as cited in patent US8791152B2, “Stable pharmaceutical composition containing docetaxel and a method of manufacturing the same” (SK Chemicals Co., Ltd., priority 2006, dated 2014).

## CC(=O)O[C@@]12CO[C@@H]1C[C@H](O)[C@@]1(C)C(=O)[C@H](O)C3=C(C)[C@@H](OC(=O)[C@H](O)[C@@H](NC(=O)OC(C)(C)C)c4ccccc4)C[C@@](O)([C@@H](OC(=O)c4ccccc4)[C@H]21)C3(C)C [Docetaxel, docetaxel]
  Solubility in water: almost insoluble in water
